Data taken from article PMC6411751, “Use of machine learning to identify novel, behaviorally active antagonists of the insect odorant receptor co-receptor (Orco) subunit” (Scientific Reports, 2019).

Columns and labels:
[1] = test system: Dmel\Or19a; design: method as in ref 1 Münch, D., Galizia, C.G. DoOR 2.0 (2016); details: ref 1 Münch, D., Galizia, C.G. DoOR 2.0 (2016); cited from earlier work
[2] = test system: Dmel\Or85b; design: method as in ref 1 Münch, D., Galizia, C.G. DoOR 2.0 (2016); details: ref 1 Münch, D., Galizia, C.G. DoOR 2.0 (2016); cited from earlier work
[3] = test system: OR expressing neurons; design: method as in PMID 22272331; details: directly injected into sensilla at ≥100 µM; cited from earlier work
[4] = test system: Dmel\Or67a; design: method as in ref 1 Münch, D., Galizia, C.G. DoOR 2.0 (2016); details: ref 1 Münch, D., Galizia, C.G. DoOR 2.0 (2016); cited from earlier work
[5] = test system: Dmel\Or13a; design: method as in ref 1 Münch, D., Galizia, C.G. DoOR 2.0 (2016); details: ref 1 Münch, D., Galizia, C.G. DoOR 2.0 (2016); cited from earlier work
[6] = test system: Dmel\Or83c; design: method as in ref 1 Münch, D., Galizia, C.G. DoOR 2.0 (2016); details: ref 1 Münch, D., Galizia, C.G. DoOR 2.0 (2016); cited from earlier work
[7] = biological target: T1, Agam\Orco (Anopheles gambiae, UniProt Q7QCC7); experiment: cell-based; type: cell-based; details: for IC50: Table S1, training actives, Agam\Orco activated by 30 µM OLC12, mean ± SEM (n = 3-8), read-out: IC50
T1 construct: expressed in transfected cells; host or cells: Xenopus laevis oocytes injected with capped cRNA (plasmid pT7TS, gift of L. Zwiebel)
T1 sequence (Q7QCC7 1-478): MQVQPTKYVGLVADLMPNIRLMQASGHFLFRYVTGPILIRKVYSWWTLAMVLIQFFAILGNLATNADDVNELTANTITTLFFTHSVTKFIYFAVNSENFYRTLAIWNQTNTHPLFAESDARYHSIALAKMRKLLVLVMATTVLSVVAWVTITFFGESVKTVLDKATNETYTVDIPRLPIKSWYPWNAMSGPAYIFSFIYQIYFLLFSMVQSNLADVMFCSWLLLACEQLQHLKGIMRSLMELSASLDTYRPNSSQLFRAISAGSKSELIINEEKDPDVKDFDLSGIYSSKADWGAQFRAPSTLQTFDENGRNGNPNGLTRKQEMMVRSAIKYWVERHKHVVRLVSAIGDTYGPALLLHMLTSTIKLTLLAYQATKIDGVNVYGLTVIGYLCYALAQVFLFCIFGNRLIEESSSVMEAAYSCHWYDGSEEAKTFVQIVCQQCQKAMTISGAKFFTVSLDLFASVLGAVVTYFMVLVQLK
Protocol: A 2 hr incubation with collagenase B (Roche) was used to remove follicle cells from oocytes. Capped cRNA for Agam\Orco was synthesized using mMessage mMachine kits (Thermo Fisher Scientific). 25 ng of cRNA was injected into stage V–VI oocytes, followed by a 2–5 day incubation at 18 °C in Barth’s saline (in mM: 88 NaCl, 1 KCl, 2.4 NaHCO3, 0.3 CaNO3, 0.41 CaCl2, 0.82 MgSO4, 15 HEPES, pH 7.4, and 0.05 g/L tetracycline, 0.05 g/L ciprofloxacin, 0.1 g/L amikacin) prior to electrophysiological recordings.
An automated parallel electrophysiology system (OpusExpress 6000 A, Molecular Devices) was used to record Orco agonist (OLC12) or odorant induced currents under two-electrode voltage clamp. Oocytes were perfused with ND96 (in mM: 96 NaCl, 2 KCl, 1 CaCl2, 1 MgCl2, 5 HEPES, pH 7.4). DMSO was used to prepare 1 M or 100 mM stock solutions of test compounds, which were then diluted in ND96 on the day of the experiment. Compounds were applied at a flow rate of 1.0 mL/min, with extensive washing in ND96 at 4.6 mL/min between applications. Micropipettes with resistances of 0.2–2.0 MΩ were filled with 3 M KCl. The holding potential was −70 mV. Current responses were filtered (4-pole, Bessel, low pass) at 20 Hz (−3 db) and sampled at 100 Hz. OpusXpress 1.1 software (Molecular Devices) was used to capture and store current responses.
To measure antagonist activity at Orco, Agam\Orco was activated by the Orco agonist OLC12[34]. […] The current response to OLC12 in the presence of antagonist candidate was compared to the mean of the preceding two responses to OLC12 alone and presented as a percentage[34],[35]. This value was then normalized to the value obtained when the assay was run in the absence of antagonist candidate (sham).
During development of the training panel (Fig. 2, Tables S1 and S2), all compounds not previously known to be Orco antagonists were tested at a concentration of 3 mM. […] Concentration-inhibition curves were constructed for all compounds eliciting >20 percent inhibition at 3 mM. The same concentration and criteria were used during screening of predicted actives (Fig. 4D) and predicted inactives (Fig. 5C).
Clampfit 9.1 software (Molecular Devices) was used to perform initial analysis of electrophysiological data. Prism 7 (Graphpad) was used for curve fitting. Concentration-inhibition data were fit to the equation: I = Imax/(1 + (X/IC50)^n) where I represents the current response at a given concentration of inhibitor, X; Imax is the maximal response in the absence of inhibitor; IC50 is the concentration of inhibitor present that allows a half maximal response from OLC12; n is the apparent Hill coefficient.

[8] = test system: oocyte; experiment: Oocyte toxicity seen during Orco antagonist screening; details: at concentrations higher than 300 µM
Description: Figure 4 (A) Scatter plot of predictions (Bayesian scores) from model A and model B for the 138 highest probability predicted actives. […] (B) Cluster membership of the 138 most likely predicted actives and distribution of experimentally tested compounds. […] (D) Antagonist activity of 39 predicted Orco antagonists, as well as the activity of 16 known Orco antagonists (denoted by a dot (•) preceding the compound name). […] Data are presented as mean ± SEM (n = 3–10).

[9] = test system: Dmel\Or69a; design: method as in ref 1 Münch, D., Galizia, C.G. DoOR 2.0 (2016); details: ref 1 Münch, D., Galizia, C.G. DoOR 2.0 (2016); cited from earlier work
[10] = test system: Dmel\Or92a; design: method as in ref 1 Münch, D., Galizia, C.G. DoOR 2.0 (2016); details: ref 1 Münch, D., Galizia, C.G. DoOR 2.0 (2016); cited from earlier work
[11] = test system: Dmel\Or22a; design: method as in ref 1 Münch, D., Galizia, C.G. DoOR 2.0 (2016); details: ref 1 Münch, D., Galizia, C.G. DoOR 2.0 (2016); cited from earlier work
[12] = test system: Agam\ORs; design: method as in ref 2-5 (a number printed in a supplementary file, which may have a reference list of its own: not looked up in the article's list); details: cited from earlier work
[13] = test system: Orco subunit of the Hessian fly (Mayetiola destructor); details: cited from earlier work

**Q.** With `CC(C)c1ccc(C=O)cc1` [4-isopropylbenzaldehyde] as the molecule, how does the “scaled response from DoOR (max = 1.0)” value [1] read?
**A.** 0.351

**Q.** What about the “scaled response from DoOR (max = 1.0)” value [2] of the same molecule?
**A.** 0.222

**Q.** Which “spontaneous firing rate of OR expressing neurons” value [3] does the source give for `CCn1c(SCC(=O)N2c3ccccc3Sc3ccccc32)nnc1-c1ccco1` [VU0183254] here?
**A.** reduce the spontaneous firing rate

**Q.** With `C=CC(C)(O)CCC=C(C)C` (centres unmarked) [linalool] as the molecule, how does the “scaled response from DoOR (max = 1.0)” value [4] read?
**A.** 0.158

**Q.** What about the “scaled response from DoOR (max = 1.0)” value [2] of the same molecule?
**A.** 0.163

**Q.** And the “scaled response from DoOR (max = 1.0)” value [5]?
**A.** 0.164

**Q.** With `CC(C)=CCCC(C)=CCCC(C)=CC=O` [farnesal] as the molecule, how does the “scaled response from DoOR (max = 1.0)” value [6] read?
**A.** 0.046

**Q.** Which “decrease in potency relative to 3I6MC” value ([7]; Agam\Orco IC50 compared with 3I6MC) does the source give for `Cc1ccc(C(C)C)cc1O` [carvacrol] here?
**A.** 3.6 fold

**Q.** What about the IC50 [7] of the same molecule?
**A.** 146 ± 21 µM

**Q.** And the oocyte toxicity [8]?
**A.** oocyte toxicity at higher concentrations

**Q.** With `CC(C)=CCC/C(C)=C/C=O` [citral] as the molecule, how does the “scaled response from DoOR (max = 1.0)” value [9] read?
**A.** 0.483

**Q.** And the “scaled response from DoOR (max = 1.0)” value [10]?
**A.** 0.325

**Q.** And the “scaled response from DoOR (max = 1.0)” value [11]?
**A.** 0.140

**Q.** What about the IC50 [7] of the same molecule?
**A.** 452 ± 44 µM

**Q.** Which “scaled response from DoOR (max = 1.0)” value [6] does the source give for `CC(C)=CCC[C@@H](C)CC=O` [citronellal] here?
**A.** 0.092

**Q.** What about the “activity at Agam\ORs (basal activity)” value ([12]; Or5, Or12, Or15, Or25, Or45, Or73) of the same molecule?
**A.** inhibition of basal

**Q.** What about the “activity at Agam\ORs” value ([12]; Or30, Or31, Or48, Or50, Or75) of the same molecule?
**A.** activation

**Q.** Which results are given for `CCOC(=O)/C=C/c1ccccc1` [ethyl-trans-cinnamate]?
**A.** scaled response from DoOR (max = 1.0) [4]: 0.143; IC50 [7]: 134 ± 16 µM

**Q.** Which “sensitivity of Orco subunit to the agonist” value [13] does the source give for `CCc1ccc(NC(=O)CSc2nnc(-c3cccnc3)n2CC)cc1` [VUAA1, N-(4-ethylphenyl)-2-((4-ethyl-5-(3-pyridinyl)-4H-1,2,4-triazol-3-yl)thio)acetamide] here?
**A.** insensitive
